Laboratory results as given in patent publication US5462936A, “Benzothiazepine derivatives” (Shionogi & Co., Ltd., priority 1991, dated 1995).
pIC50: −log10 of the molar value.

Assays:
[1] = tested on: spontaneous hypertensive rats (SHR); experiment: Action on blood pressure and heart rate of not-anesthetized SHR; assay type: in vivo, rat (SHR); conditions: 2 and 4 hours after administration; for Antihypertensive action (%): decrease in SBP
Experimental: Action of the compounds of the invention on blood pressure and heart rate of not-anesthetized spontaneous hypertensive rats (SHR)
Male Japanese Charles-River SHR (13-17 week old) were used in the experiment (S. Matsuda, J. Pharmacol. Method, 17 361, 1987). Systolic blood pressure (SBP) and heart rate of the animals were measured non-invasively (indirectly) using hemadynamometer for caudal artery pressure (6 channel type) before the administration of test compounds, at 2 and 4 hours after administration. Test compounds were dissolved in DMSO (100%) and orally administered. Decreased values in SBP and heart rate determined 2 and 4 hours after administration when compared with those determined before administration are shown in percentage (%) in the following table.

Calcium Channel = Calcium Channel (Oryctolagus cuniculus, UniProt P15381); experiment: Calcium channel antagonism: relaxing action on extracted blood vessel (rabbit femoral artery, contracture by 50 mM KCl); conditions: 50 mM KCl contracture, 50% of maximum relaxing (0.1 mM papaverine)
Experimental: (§1) Calcium Channel Antagonism and […] Action (Relaxing Action on Extracted Blood Vessel)
(§2) Male rabbits weighing 2-3 kg (Rabiton, Japanese albino species) were anesthetized through intravenous administration of pentobarbital (50 mg/kg), and sacrificed by bloodletting through dissection of axillary artery. Femoral artery was extracted, connective tissue surrounding the artery was removed, and helical specimen was prepared. The specimen was suspended in an organ bath (20 cc) filled with 37° C. Krebs-Henseleit nutritious solution and bubbled with a 95% O2 +5% CO2 mixed gas. 1.5 g of resting tension was loaded on femoral artery. Isometric change of the tension of the specimen was recorded on a thermal recorder (Nippon Koden WT-685G) via F-D pickup Nippon Koden (TB611T) and Preamp (Nippon Koden). Ca-antagonism of a test compound was evaluated by observing relaxing action due to accumulative addition of the compound on the contracture caused by the application of 50 mM KCl. α-Blocking action was similarly evaluated by observing such relaxing action on the contracture caused by the application of 1 μM norepinephrine (NE). […] The concentration of a given compound, which is necessary for giving 50% of the maximum relaxing (IC50), was determined using the above system.

cultured cardiac cells = experiment: Anti-hypoxia action on cultured cardiac cells (inhibition of CPK leakage); assay type: cell-based, rat (newborn Crj-SD); conditions: Rattus norvegicus, read-out: Anti-hypoxia Activity (%), rate of inhibition on CPK leakage
Experimental: Anti-hypoxia action of the compounds of the present invention were investigated through studying their action in connection with the protection of cardiomuscular cells.
Primary culture of cardiac cells was prepared from newborn Crj-SD rats (2-3 day old) and used in the experiment. The primary culture was prepared according to the method described by Jones R. L. et al., Am. J. Pathol., 135, 541-556, 1989. Thus, cardiac cells were isolated from ventricle muscle using collagenase and pancreatin, and then the cardiac cells were separated and purified from cell debris, erythrocytes, and fibroblasts by means of Percoll density-gradient centrifugation. The cells were spread on a culture plate at a ratio of 2-3×10^5 cells/3.5 cm plate, and the cells were cultured for two days in Dulbecco's Modified Eagle's Medium (DMEM) containing 10% Fetal Bovine Serum (FBS) in an incubator (5% CO2 /95% Air) kept at 37° C. After sufficient growth of the cardiac cells, the culture medium was changed to DMEM free from FBS, and the culture was continued additional one day. The cells thus obtained were used in the experiment.
Hypoxia was generated using Gas Pak™ Anaerobic Chamber (BBL) which produces hypoxia by capturing residual O2 and changing it into H2 0 by the action of a H2 /CO2 generating bag and catalyst. The cardiac cell plate, wherein the culture medium had been changed to DMEM which is free from FBS and glucose, was set in the chamber, and the chamber was placed in an incubator. Anti-hypoxia activity of test compounds was determined by measuring inhibition rate of leakage of creatine phosphokinase activity into the culture medium.
The compounds tested were all dissolved in DMSO using HCO-50 as a solubilizing agent (DMSO:HCO-50=9:1), and directly charged onto the culture plate. The final concentrations of DMSO and HCO-50 in the culture medium were adjusted to 0.09% and 0.01% respectively. CPK activity was measured by colorimetry (Wako Kit) modified from Oliver method.
The numerical values in the table show cardiac cells-protecting activity of test compounds in terms of the rate (%) of inhibition on CPK leakage determined in connection with the test compounds when the amount of the CPK leakage for negative control (no addition of the test compounds) was defined as 100%.

[2] = tested on: cardiac muscle damage due to ischemia; experiment: Anti-necrosis activity (left coronary ligation and reperfusion, CPK retention in left ventricle); assay type: in vivo, rat (Wistar); conditions: Rattus norvegicus; for inhibition in vivo at 0.3 mg/kg: 0.3 mg/kg iv; for inhibition in vivo at 1 mg/kg: 1 mg/kg iv
Experimental: Male Sic Wistar rats weighing 200-250 g were anesthetized with urethane (1 g/kg), and ramus descendens of the left coronaria was ligated for 20 minutes and then reperfused according to the method described by Hock et al (Hock, […]., Am. Heart J., 109 222, 1985). […] For three hours after the reperfusion, the rats were subjected to heat insulation on a warming mat. After 120 minutes, the hearts were extracted, and the free walls of the left ventricles were frozen and storred until determination of CPK activity. CPK activity was determined according to the method of Bernauer, W. (Arch. int. Pharmacodyn., 231 90, 1978) after minor modification. Thus, the extracted tissue was homogenized in 10 volumes of 0.1M Tris/HCl (pH 7.5) containing 1 mM mercaptoethanol and centrifuged at 20,000 g for 20 minutes. The supernatant was used for determination of CPK activity, which was conducted using a commercially available kit (CPK-Test, Wako). CPK was determined using serum CPK as a standard and expressed with "U/mg protein". […] The degree of the inhibition was measured in terms of the CPK activity retained in the left ventricle. The test results are shown in Table 7, wherein percentage of the retention (%) at each dose was calculated based on the following equation.

femoral artery = experiment: α-Blocking action: relaxing action on extracted blood vessel (rabbit femoral artery, contracture by 1 μM norepinephrine); conditions: Oryctolagus cuniculus, 1 μM norepinephrine contracture, 50% of maximum relaxing (0.1 mM papaverine), read-out: Relaxing action on Blood Vessel IC50, 1 μM-NE
Experimental: as §1, §2

Sequence of Calcium Channel (P15381 whole entry): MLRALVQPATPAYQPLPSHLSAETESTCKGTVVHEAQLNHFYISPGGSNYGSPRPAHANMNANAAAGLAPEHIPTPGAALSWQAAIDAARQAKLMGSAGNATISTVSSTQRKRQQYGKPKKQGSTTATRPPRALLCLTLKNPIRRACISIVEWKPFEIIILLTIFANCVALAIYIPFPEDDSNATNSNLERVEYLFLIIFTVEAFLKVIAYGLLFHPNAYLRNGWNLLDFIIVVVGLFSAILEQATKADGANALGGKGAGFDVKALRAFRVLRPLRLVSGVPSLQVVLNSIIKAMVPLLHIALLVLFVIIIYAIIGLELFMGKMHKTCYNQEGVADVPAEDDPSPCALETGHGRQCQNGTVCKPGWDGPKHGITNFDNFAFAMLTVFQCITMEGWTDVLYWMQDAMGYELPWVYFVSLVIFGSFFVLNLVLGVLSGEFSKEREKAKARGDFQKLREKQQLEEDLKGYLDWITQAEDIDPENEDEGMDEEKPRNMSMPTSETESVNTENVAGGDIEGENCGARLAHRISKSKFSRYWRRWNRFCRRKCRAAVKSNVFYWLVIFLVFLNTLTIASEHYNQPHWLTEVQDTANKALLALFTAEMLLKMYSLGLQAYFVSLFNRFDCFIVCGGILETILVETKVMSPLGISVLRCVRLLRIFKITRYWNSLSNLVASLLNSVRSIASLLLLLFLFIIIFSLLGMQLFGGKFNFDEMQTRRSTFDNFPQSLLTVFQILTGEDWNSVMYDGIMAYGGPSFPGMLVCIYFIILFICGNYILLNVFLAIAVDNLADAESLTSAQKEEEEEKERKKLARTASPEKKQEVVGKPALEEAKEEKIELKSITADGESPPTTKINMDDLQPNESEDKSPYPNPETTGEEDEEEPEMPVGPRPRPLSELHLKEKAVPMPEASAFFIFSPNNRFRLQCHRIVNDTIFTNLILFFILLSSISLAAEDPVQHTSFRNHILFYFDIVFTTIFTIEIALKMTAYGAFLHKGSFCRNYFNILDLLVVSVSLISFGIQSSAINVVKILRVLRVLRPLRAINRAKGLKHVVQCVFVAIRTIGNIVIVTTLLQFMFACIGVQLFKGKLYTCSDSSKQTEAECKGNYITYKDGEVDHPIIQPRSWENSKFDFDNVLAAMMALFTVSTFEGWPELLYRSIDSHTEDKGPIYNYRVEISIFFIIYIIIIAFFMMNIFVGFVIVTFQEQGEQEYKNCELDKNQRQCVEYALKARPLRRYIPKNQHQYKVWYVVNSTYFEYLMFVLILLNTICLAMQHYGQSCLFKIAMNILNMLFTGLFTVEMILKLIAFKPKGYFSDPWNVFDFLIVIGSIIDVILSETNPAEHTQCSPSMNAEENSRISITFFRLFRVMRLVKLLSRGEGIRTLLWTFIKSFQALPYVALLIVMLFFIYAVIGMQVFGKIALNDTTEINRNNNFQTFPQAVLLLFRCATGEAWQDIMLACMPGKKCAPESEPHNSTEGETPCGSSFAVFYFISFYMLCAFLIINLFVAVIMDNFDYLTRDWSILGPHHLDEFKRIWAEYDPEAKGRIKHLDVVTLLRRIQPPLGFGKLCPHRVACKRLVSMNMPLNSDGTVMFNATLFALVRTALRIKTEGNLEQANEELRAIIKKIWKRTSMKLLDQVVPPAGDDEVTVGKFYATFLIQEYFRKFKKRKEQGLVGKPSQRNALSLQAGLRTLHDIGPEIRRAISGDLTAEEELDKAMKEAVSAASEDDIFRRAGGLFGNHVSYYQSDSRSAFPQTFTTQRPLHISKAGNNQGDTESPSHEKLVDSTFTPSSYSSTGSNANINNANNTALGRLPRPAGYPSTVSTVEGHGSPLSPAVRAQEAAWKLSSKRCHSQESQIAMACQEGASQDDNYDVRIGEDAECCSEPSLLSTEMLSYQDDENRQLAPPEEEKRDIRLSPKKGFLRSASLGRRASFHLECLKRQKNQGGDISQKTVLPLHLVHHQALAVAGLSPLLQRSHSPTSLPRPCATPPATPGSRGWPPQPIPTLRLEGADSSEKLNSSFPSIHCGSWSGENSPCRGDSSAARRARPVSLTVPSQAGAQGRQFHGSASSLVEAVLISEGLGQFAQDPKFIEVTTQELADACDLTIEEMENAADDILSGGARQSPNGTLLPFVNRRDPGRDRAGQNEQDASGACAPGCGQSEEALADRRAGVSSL
Sequence of Calcium Channel (P13806 27-960 partner limits assumed): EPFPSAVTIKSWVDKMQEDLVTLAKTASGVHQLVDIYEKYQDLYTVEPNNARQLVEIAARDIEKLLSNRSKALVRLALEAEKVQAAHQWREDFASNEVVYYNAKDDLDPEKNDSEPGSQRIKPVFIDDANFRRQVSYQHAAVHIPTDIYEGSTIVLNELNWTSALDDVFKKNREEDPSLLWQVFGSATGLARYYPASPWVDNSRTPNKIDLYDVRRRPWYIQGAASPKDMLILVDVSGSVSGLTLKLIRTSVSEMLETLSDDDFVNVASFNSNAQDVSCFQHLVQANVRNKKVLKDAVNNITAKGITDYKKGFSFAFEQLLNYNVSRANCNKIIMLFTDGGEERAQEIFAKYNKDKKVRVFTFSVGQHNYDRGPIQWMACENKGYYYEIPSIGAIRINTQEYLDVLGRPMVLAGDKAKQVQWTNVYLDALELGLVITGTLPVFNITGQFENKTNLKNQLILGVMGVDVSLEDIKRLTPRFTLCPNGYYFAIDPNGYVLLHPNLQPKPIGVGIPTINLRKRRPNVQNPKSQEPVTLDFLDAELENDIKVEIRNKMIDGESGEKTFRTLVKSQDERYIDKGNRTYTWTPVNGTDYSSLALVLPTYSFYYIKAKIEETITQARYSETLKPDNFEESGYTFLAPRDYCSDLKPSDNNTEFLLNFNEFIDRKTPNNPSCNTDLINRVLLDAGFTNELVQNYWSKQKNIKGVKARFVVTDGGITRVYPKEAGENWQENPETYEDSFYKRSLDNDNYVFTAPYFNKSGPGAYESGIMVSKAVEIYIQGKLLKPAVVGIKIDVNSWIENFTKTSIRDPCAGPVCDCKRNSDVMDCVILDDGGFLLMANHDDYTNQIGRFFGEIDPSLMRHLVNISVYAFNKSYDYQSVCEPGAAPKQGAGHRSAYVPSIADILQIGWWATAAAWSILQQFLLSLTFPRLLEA
Sequence of Calcium Channel (P13806 961-1106 partner limits assumed): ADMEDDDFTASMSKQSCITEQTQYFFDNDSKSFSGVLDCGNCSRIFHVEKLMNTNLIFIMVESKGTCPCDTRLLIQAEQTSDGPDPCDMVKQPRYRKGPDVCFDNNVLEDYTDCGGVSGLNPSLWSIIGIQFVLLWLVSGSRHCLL

SMILES	Decrease of heart rate (%) ([1]; 30 mg/kg PO)	Antihypertensive action (%) ([1]; 30 mg/kg PO)	pIC50 (Calcium Channel)	inhibition at 1 µM (cultured cardiac cells) [%]	inhibition at 10 µM (cultured cardiac cells) [%]	inhibition in vivo at 0.3 mg/kg [2] [%]	pIC50 (femoral artery)	Decrease of heart rate (%) ([1]; 60 mg/kg PO)	Antihypertensive action (%) ([1]; 60 mg/kg PO)	inhibition in vivo at 0.1 mg/kg ([2]; 0.1 mg/kg iv) [%]	inhibition in vivo at 1 mg/kg [2] [%]
COc1ccc([C@@H]2Sc3cc(Cl)ccc3N(CCCN3CCN(c4ccccc4OC)CC3)C(=O)[C@@H]2OC(C)=O)cc1 (relative stereo) [Compound I-8, 3-Acetoxy-5-[3-(4-(2-methoxyphenyl)-piperazinyl)propyl]-2,3-dihydro-2-(4-methoxyphenyl)-8-chloro-1,5-benzothiazepin-4(5H)-one]	3.2	15	6.55	17	70	29	7.22				
COc1ccc([C@@H]2Sc3cc(Cl)ccc3N(CCCN3CCN(C(c4ccc(F)cc4)c4ccc(F)cc4)CC3)C(=O)[C@@H]2OC(C)=O)cc1 (relative stereo) [Compound I-15, 3-Acetoxy-5-[3-(4-(4,4'-difluorobenzhydryl) -1-piperazinyl)propyl]-2,3-dihydro-2-(4-methoxyphenyl)-8-chloro-1,5-benzothiazepin-4(5H)-one]			7.24		76		6.22	6.5	17		
COc1ccc([C@@H]2Sc3cc(Cl)ccc3N(CCCN3CCN(c4ccccc4OC)CC3)C(=O)[C@@H]2OC(C)=O)cc1.Cl [Compound I-18, (2S-cis)-3-Acetoxy-5-[3-(4-(2-methoxyphenyl) -1-piperazinyl)propyl]-2,3-dihydro-2(4-methoxyphenyl) -8-chloro-1,5-benzothiazepin-4(5H)-one hydrochloride]	7.0	18	6.60	23.7	73.9	42	7.43			30	
COc1ccc([C@@H]2Sc3cc(Cl)ccc3N(CCCN3CCN(C(c4ccccc4)c4ccc(Cl)cc4)CC3)C(=O)[C@@H]2OC(C)=O)cc1 (stereo partly drawn) [Compound I-22, (2S-cis)-3-Acetoxy-5-[3-(4-(4-chlorobenzhydryl)-1-piperazinyl)propyl]-2,3-dihydro-2-(4-methoxyphenyl)-8-chloro-l,5-benzothiazepin-4(5H)-one]	9.4	18	6.47	25.7	73.9	45					
COc1ccc([C@@H]2Sc3cc(OC)ccc3N(CCCN3CCN(c4ccccc4OC)CC3)C(=O)[C@@H]2OC(C)=O)cc1 [Compound I-35, (2S-cis)-3-Acetoxy-5-[3-(4-(2-methoxyphenyl)-1-piperazinyl)propyl]-2,3-dihydro-2-(4-methoxyphenyl)-8-methoxy-l,5-benzothiazepin-4(5H)-one]			6.92				7.52				37
COc1ccc([C@@H]2Sc3cc(C)ccc3N(CCCN3CCN(c4ccccc4OC)CC3)C(=O)[C@@H]2OC(C)=O)cc1 [Compound I-36, (2S-cis)-3-Acetoxy-5-[3-(4-(2methoxyphenyl) - 1-piperazinyl)propyl]-2,3-dihydro-2-(4-methoxyphenyl)-8-methyl-1,5-benzothiazepin-4 (5H)-one]			6.85				7.70				30
COc1ccc([C@@H]2Sc3ccccc3N(CCN(C)C)C(=O)[C@@H]2OC(C)=O)cc1 [Diltiazem, reference compound]				10	29		4.88	15	11		13
